Source: patent US20230085307A1, “PYRIDAZINONE COMPOUND AND HERBICIDE” (NISSAN CHEMICAL CORPORATION, priority 2019, published 2023)

The molecules below were run on barnyard grass (assay: Test Example 5: herbicidal effect by foliage application, plastic box (Table 20, symbol H)). Conditions: foliage application, 320 g/ha, three weeks after application.
Assay type: in vivo, barnyard grass (Echinochloa crus-galli)
Outline: (§1)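 Foliar spray test: emulsion formulation diluted in water to a set application rate, sprayed onto 14-day-old plants raised in diluvial soil at 25° C to 30° C under glass. Both herbicidal effect and crop effect rated visually three weeks later.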
CCCC(=O)Oc1c(C)nn(C)c(=O)c1-c1c(-c2ccc3c(c2)OCCO3)sc2cc(F)ccc12 [3-014] was tested, and the “H: barnyard grass, herbicidal effect grade” value was 3 (Herbicidal rate of 40% or more and less than 70%). CCOC(=O)Oc1c(C)nn(C)c(=O)c1-c1c(-c2ccccc2OC)sc2cc(F)ccc12 [3-024] was tested, and the “H: barnyard grass, herbicidal effect grade” value was 5 (Herbicidal rate of 90% or more (almost completely withered)).

What follows are molecules tested on oval-leafed pondweed (assay: Test Example 1: herbicidal activity, application before weed generation under submerged conditions (Table 16, symbol C)). Conditions: amount of applied herbicide 320 g/ha.
Assay type: in vivo, oval-leafed pondweed (Monochoria vaginalis)
Outline: (§2)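 Emulsion formulation, water-diluted to set dose, was put onto the flooded surface (4 cm depth, alluvial soil) the same day weeds were sown and 2.5-leaf rice transplanted. After 3 weeks at 25-30 °C under glass, each species was rated 0 (≤5% kill) to 5 (≥90% kill).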
For CCCC(=O)Oc1c(C)nn(C)c(=O)c1-c1c(-c2ccc3c(c2)OCCO3)sc2cc(F)ccc12 [3-014], the “Herbicidal effect, C: oval-leafed pondweed” value was 5 (Herbicidal rate of 90% or more (almost completely withered)). With CCOC(=O)Oc1c(C)nn(C)c(=O)c1-c1c(-c2ccccc2OC)sc2cc(F)ccc12 [3-024] the “Herbicidal effect, C: oval-leafed pondweed” value was 0 (Herbicidal rate of 5% or less (almost no effect)).

The molecules below were run on Japanese bulrush (assay: Test Example 1: herbicidal activity, application before weed generation under submerged conditions (Table 16, symbol B)). Conditions: amount of applied herbicide 320 g/ha.
Assay type: in vivo, Japanese bulrush (Schoenoplectus juncoides)
Outline: as §2
With CCCC(=O)Oc1c(C)nn(C)c(=O)c1-c1c(-c2ccc3c(c2)OCCO3)sc2cc(F)ccc12 [3-014] the “Herbicidal effect, B: Japanese bulrush” value was 3 (Herbicidal rate of 40% or more and less than 70%). In the case of CCOC(=O)Oc1c(C)nn(C)c(=O)c1-c1c(-c2ccccc2OC)sc2cc(F)ccc12 [3-024], the “Herbicidal effect, B: Japanese bulrush” value is reported as 0 (Herbicidal rate of 5% or less (almost no effect)).

These molecules were tested on rice flat sedge (assay: Test Example 3: herbicidal effect by foliage application, Wagner pot (Table 18, symbol E)). Conditions: amount of applied herbicide 320 g/ha.
Assay type: in vivo, rice flat sedge (Cyperus iria)
Outline: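 Plants were sown in alluvial soil held under 0.1–0.5 cm standing water and grown 14 days in a greenhouse at 25–30 °C. An emulsifiable formulation, water-diluted to the set dose, was then sprayed onto the foliage, and effects were scored three weeks later using previously defined criteria.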
CCCC(=O)Oc1c(C)nn(C)c(=O)c1-c1c(-c2ccc3c(c2)OCCO3)sc2cc(F)ccc12 [3-014] was tested, and the “herbicidal effect on E: rice flat sedge” value was 4 (Herbicidal rate of 70% or more and less than 90%). For CCOC(=O)Oc1c(C)nn(C)c(=O)c1-c1c(-c2ccccc2OC)sc2cc(F)ccc12 [3-024], the “herbicidal effect on E: rice flat sedge” value was 5 (Herbicidal rate of 90% or more (almost completely withered)).

Each molecule was assayed on lambsquarters (assay: Test Example 5: herbicidal effect by foliage application, plastic box (Table 20, symbol O)). Conditions: foliage application, 320 g/ha, three weeks after application.
Assay type: in vivo, lambsquarters (Chenopodium album)
Outline: as §1
With CCCC(=O)Oc1c(C)nn(C)c(=O)c1-c1c(-c2ccc3c(c2)OCCO3)sc2cc(F)ccc12 [3-014] the “O: lambsquarters, herbicidal effect grade” value was 5 (Herbicidal rate of 90% or more (almost completely withered)). For CCOC(=O)Oc1c(C)nn(C)c(=O)c1-c1c(-c2ccccc2OC)sc2cc(F)ccc12 [3-024], the “O: lambsquarters, herbicidal effect grade” value was 4 (Herbicidal rate of 70% or more and less than 90%).

Each molecule was assayed on wild oat (assay: Test Example 4: herbicidal effect by soil treatment (Table 19, symbol I)). Conditions: amount of applied herbicide 320 g/ha.
Assay type: in vivo, wild oat (Avena fatua)
Outline: (§3)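 Step 1: sow seeds in sterilized diluvial soil, cover ~1.5 cm. Step 2: spray diluted emulsion onto soil surface at predetermined rate. Step 3: greenhouse, 25–30° C, three weeks. Step 4: grade effect on each plant by earlier criteria.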
For CCCC(=O)Oc1c(C)nn(C)c(=O)c1-c1c(-c2ccc3c(c2)OCCO3)sc2cc(F)ccc12 [3-014], the “herbicidal effect, I: wild oat” value was 0 (Herbicidal rate of 5% or less (almost no effect)). In the case of CCOC(=O)Oc1c(C)nn(C)c(=O)c1-c1c(-c2ccccc2OC)sc2cc(F)ccc12 [3-024], the “I: wild oat, herbicidal effect grade” value is reported as 3 (Herbicidal rate of 40% or more and less than 70%).

Each molecule was assayed on chickweed (assay: Test Example 5: herbicidal effect by foliage application, plastic box (Table 20, symbol P)). Conditions: foliage application, 320 g/ha, three weeks after application.
Assay type: in vivo, common chickweed (Stellaria media)
Outline: as §1
For CCCC(=O)Oc1c(C)nn(C)c(=O)c1-c1c(-c2ccc3c(c2)OCCO3)sc2cc(F)ccc12 [3-014], the “P: chickweed, herbicidal effect grade” value was 5 (Herbicidal rate of 90% or more (almost completely withered)). CCOC(=O)Oc1c(C)nn(C)c(=O)c1-c1c(-c2ccccc2OC)sc2cc(F)ccc12 [3-024] was tested, and the “P: chickweed, herbicidal effect grade” value was 5 (Herbicidal rate of 90% or more (almost completely withered)).

The molecules below were run on late watergrass (assay: Test Example 2: herbicidal activity, application during weed generation under submerged conditions (Table 17, symbol A)). Conditions: AAH 320 g/ha; application during weed generation, submerged conditions.
Assay type: in vivo, late watergrass (Echinochloa oryzicola)
Outline: (§4)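 Mixed weed seedlings in alluvial soil under a 4 cm water layer, greenhouse-grown at 25–30° C. Compound given as a diluted emulsion into the floodwater at the 1–2 leaf stage; response graded after three weeks.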
CCCC(=O)Oc1c(C)nn(C)c(=O)c1-c1c(-c2ccc3c(c2)OCCO3)sc2cc(F)ccc12 [3-014] was tested, and the “herbicidal effect rating, A: late watergrass” value was 3 (Herbicidal rate of 40% or more and less than 70%). With CCOC(=O)Oc1c(C)nn(C)c(=O)c1-c1c(-c2ccccc2OC)sc2cc(F)ccc12 [3-024] the “herbicidal effect rating, A: late watergrass” value was 2 (Herbicidal rate of 20% or more and less than 40%).

These molecules were tested on lambsquarters (assay: Test Example 4: herbicidal effect by soil treatment (Table 19, symbol O)). Conditions: amount of applied herbicide 320 g/ha.
Assay type: in vivo, lambsquarters (Chenopodium album)
Outline: as §3
For CCCC(=O)Oc1c(C)nn(C)c(=O)c1-c1c(-c2ccc3c(c2)OCCO3)sc2cc(F)ccc12 [3-014], the “herbicidal effect, O: lambsquarters” value was 4 (Herbicidal rate of 70% or more and less than 90%). CCOC(=O)Oc1c(C)nn(C)c(=O)c1-c1c(-c2ccccc2OC)sc2cc(F)ccc12 [3-024] was tested, and the “O: lambsquarters, herbicidal effect grade” value was 4 (Herbicidal rate of 70% or more and less than 90%).

Each molecule was assayed on wild oat (assay: Test Example 5: herbicidal effect by foliage application, plastic box (Table 20, symbol I)). Conditions: foliage application, 320 g/ha, three weeks after application.
Assay type: in vivo, wild oat (Avena fatua)
Outline: as §1
For CCCC(=O)Oc1c(C)nn(C)c(=O)c1-c1c(-c2ccc3c(c2)OCCO3)sc2cc(F)ccc12 [3-014], the “I: wild oat, herbicidal effect grade” value was 1 (Herbicidal rate of 5% or more and less than 20%). CCOC(=O)Oc1c(C)nn(C)c(=O)c1-c1c(-c2ccccc2OC)sc2cc(F)ccc12 [3-024] was tested, and the “I: wild oat, herbicidal effect grade” value was 3 (Herbicidal rate of 40% or more and less than 70%).

The molecules below were run on Italian ryegrass (assay: Test Example 5: herbicidal effect by foliage application, plastic box (Table 20, symbol K)). Conditions: foliage application, 320 g/ha, three weeks after application.
Assay type: in vivo, Italian ryegrass (Lolium multiflorum)
Outline: as §1
In the case of CCCC(=O)Oc1c(C)nn(C)c(=O)c1-c1c(-c2ccc3c(c2)OCCO3)sc2cc(F)ccc12 [3-014], the “K: Italian ryegrass, herbicidal effect grade” value is reported as 1 (Herbicidal rate of 5% or more and less than 20%). For CCOC(=O)Oc1c(C)nn(C)c(=O)c1-c1c(-c2ccccc2OC)sc2cc(F)ccc12 [3-024], the “K: Italian ryegrass, herbicidal effect grade” value was 4 (Herbicidal rate of 70% or more and less than 90%).

What follows are molecules tested on velvetleaf (assay: Test Example 5: herbicidal effect by foliage application, plastic box (Table 20, symbol M)). Conditions: foliage application, 320 g/ha, three weeks after application.
Assay type: in vivo, velvetleaf (Abutilon theophrasti)
Outline: as §1
In the case of CCCC(=O)Oc1c(C)nn(C)c(=O)c1-c1c(-c2ccc3c(c2)OCCO3)sc2cc(F)ccc12 [3-014], the “M: velvetleaf, herbicidal effect grade” value is reported as 5 (Herbicidal rate of 90% or more (almost completely withered)). CCOC(=O)Oc1c(C)nn(C)c(=O)c1-c1c(-c2ccccc2OC)sc2cc(F)ccc12 [3-024] was tested, and the “M: velvetleaf, herbicidal effect grade” value was 5 (Herbicidal rate of 90% or more (almost completely withered)).

These molecules were tested on Japanese bulrush (assay: Test Example 2: herbicidal activity, application during weed generation under submerged conditions (Table 17, symbol B)). Conditions: AAH 320 g/ha; application during weed generation, submerged conditions.
Assay type: in vivo, Japanese bulrush (Schoenoplectus juncoides)
Outline: as §4
For CCCC(=O)Oc1c(C)nn(C)c(=O)c1-c1c(-c2ccc3c(c2)OCCO3)sc2cc(F)ccc12 [3-014], the “herbicidal effect rating, B: Japanese bulrush” value was 0 (Herbicidal rate of 5% or less (almost no effect)). With CCOC(=O)Oc1c(C)nn(C)c(=O)c1-c1c(-c2ccccc2OC)sc2cc(F)ccc12 [3-024] the “herbicidal effect rating, B: Japanese bulrush” value was 3 (Herbicidal rate of 40% or more and less than 70%).

These molecules were tested on windgrass (assay: Test Example 5: herbicidal effect by foliage application, plastic box (Table 20, symbol L)). Conditions: foliage application, 320 g/ha, three weeks after application.
Assay type: in vivo, windgrass (Apera spica-venti)
Outline: as §1
With CCCC(=O)Oc1c(C)nn(C)c(=O)c1-c1c(-c2ccc3c(c2)OCCO3)sc2cc(F)ccc12 [3-014] the “L: windgrass, herbicidal effect grade” value was 0 (Herbicidal rate of 5% or less (almost no effect)). For CCOC(=O)Oc1c(C)nn(C)c(=O)c1-c1c(-c2ccccc2OC)sc2cc(F)ccc12 [3-024], the “L: windgrass, herbicidal effect grade” value was 5 (Herbicidal rate of 90% or more (almost completely withered)).

What follows are molecules tested on Italian ryegrass (assay: Test Example 4: herbicidal effect by soil treatment (Table 19, symbol K)). Conditions: amount of applied herbicide 320 g/ha.
Assay type: in vivo, Italian ryegrass (Lolium multiflorum)
Outline: as §3
In the case of CCCC(=O)Oc1c(C)nn(C)c(=O)c1-c1c(-c2ccc3c(c2)OCCO3)sc2cc(F)ccc12 [3-014], the “herbicidal effect, K: Italian ryegrass” value is reported as 0 (Herbicidal rate of 5% or less (almost no effect)). In the case of CCOC(=O)Oc1c(C)nn(C)c(=O)c1-c1c(-c2ccccc2OC)sc2cc(F)ccc12 [3-024], the “K: Italian ryegrass, herbicidal effect grade” value is reported as 1 (Herbicidal rate of 5% or more and less than 20%).

These molecules were tested on persian speedwell (assay: Test Example 4: herbicidal effect by soil treatment (Table 19, symbol R)). Conditions: amount of applied herbicide 320 g/ha.
Assay type: in vivo, Persian speedwell (Veronica persica)
Outline: as §3
With CCCC(=O)Oc1c(C)nn(C)c(=O)c1-c1c(-c2ccc3c(c2)OCCO3)sc2cc(F)ccc12 [3-014] the “herbicidal effect, R: persian speedwell” value was 5 (Herbicidal rate of 90% or more (almost completely withered)). In the case of CCOC(=O)Oc1c(C)nn(C)c(=O)c1-c1c(-c2ccccc2OC)sc2cc(F)ccc12 [3-024], the “R: persian speedwell, herbicidal effect grade” value is reported as 0 (Herbicidal rate of 5% or less (almost no effect)).

The molecules below were run on velvetleaf (assay: Test Example 4: herbicidal effect by soil treatment (Table 19, symbol M)). Conditions: amount of applied herbicide 320 g/ha.
Assay type: in vivo, velvetleaf (Abutilon theophrasti)
Outline: as §3
With CCCC(=O)Oc1c(C)nn(C)c(=O)c1-c1c(-c2ccc3c(c2)OCCO3)sc2cc(F)ccc12 [3-014] the “herbicidal effect, M: velvetleaf” value was 0 (Herbicidal rate of 5% or less (almost no effect)). For CCOC(=O)Oc1c(C)nn(C)c(=O)c1-c1c(-c2ccccc2OC)sc2cc(F)ccc12 [3-024], the “M: velvetleaf, herbicidal effect grade” value was 3 (Herbicidal rate of 40% or more and less than 70%).
